We go through 15 compounds from patent US8927500B2, “Peptidomimetic macrocycles” (Aileron Therapeutics, Inc., priority 2012, dated 2015).

Test [1] has as its target MDM2 (Homo sapiens, UniProt Q00987). The test can be described thus: Competitive fluorescence polarization assay for MDM2. Format: binding. Conditions: competitive FP assay, MDM2; for Ki: read-out: Ki (MDM2); for IC50: read-out: IC50 (MDM2). A general note: Polarisation of emitted light reports the rotation of a fluorescent probe.
In test [2] the target is T1, MDMX (Homo sapiens, UniProt O15151).
T1 sequence (O15151 1-125): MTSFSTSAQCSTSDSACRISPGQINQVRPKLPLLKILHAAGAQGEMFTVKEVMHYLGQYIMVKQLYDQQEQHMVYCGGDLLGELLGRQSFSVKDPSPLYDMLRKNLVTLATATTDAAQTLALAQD
The test can be described thus: Competitive fluorescence polarization assay for MDMX. Type of test: binding. Conditions: competitive FP assay; for Ki: read-out: Ki (MDMX); for IC50: read-out: IC50 (MDMX).

The structures appear in SMILES notation. Where a SMILES comes first, the peptide text is derived from it. Bridges are numbered along the chain shown (N, C = ends). [ ]: non-standard residue; d: D form. R8 = C=CCCCCCC[C@@](C)(N)C(=O)O; Cha = N[C@@H](CC1CCCCC1)C(=O)O; Chg = N[C@H](C(=O)O)C1CCCCC1; hLeu = CC(C)CC[C@H](N)C(=O)O; S5 = C=CCCC[C@](C)(N)C(=O)O; Nle = CCCC[C@H](N)C(=O)O; Ac3c = NC1(C(=O)O)CC1; Aib = CC(C)(N)C(=O)O

Sequence of MDM2 (Q00987 1-125): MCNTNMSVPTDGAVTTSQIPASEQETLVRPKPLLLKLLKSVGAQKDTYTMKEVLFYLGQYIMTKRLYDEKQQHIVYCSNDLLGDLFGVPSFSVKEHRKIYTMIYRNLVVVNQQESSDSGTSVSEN

As usually defined, the Ki is the dissociation constant of the complex between target and ligand, obtained from inhibition or displacement. As to `CC(=O)N[C@@H](CC(C)C)C(=O)N[C@H](C(=O)N[C@@H](Cc1ccccc1)C(=O)N[C@]1(C)CCCCCCC=CCCC[C@@](C)(C(=O)N[C@@H](CO)C(=O)N[C@@H](C)C(N)=O)NC(=O)[C@H](CC2CCC2)NC(=O)[C@H](CCC(N)=O)NC(=O)[C@H](C)NC(=O)[C@H](Cc2c[nH]c3ccccc23)NC(=O)[C@H](Cc2ccc(O)cc2)NC(=O)[C@H](CCC(=O)O)NC1=O)[C@@H](C)O` (single isomer, unassigned) [compound 711], the Ki was in the range of 0.01 to 0.1 µM in test [1] and 0.1 to 1 µM in test [2].
The like results for `CC(=O)N[C@@H](CC(C)C)C(=O)N[C@H](C(=O)N[C@@H](Cc1ccccc1)C(=O)N[C@]1(C)CCCCCCC=CCCC[C@@](C)(C(=O)N[C@@H](CO)C(=O)N[C@@H](C)C(=O)N[C@@H](C)C(N)=O)NC(=O)[C@H](CC2CCC2)NC(=O)[C@H](CCC(N)=O)NC(=O)[C@H](C)NC(=O)[C@H](Cc2c[nH]c3ccccc23)NC(=O)[C@H](Cc2ccc(O)cc2)NC(=O)[C@H](Cc2c[nH]cn2)NC1=O)[C@@H](C)O` (single isomer, unassigned) [compound 712] were, in that order, below 0.01 µM and below 0.01 µM.
Take `CC(=O)N[C@@H](CC(C)C)C(=O)N[C@H](C(=O)N[C@@H](Cc1ccccc1)C(=O)N[C@]1(C)CCCCCCC=CCCC[C@@](C)(C(=O)N[C@@H](CO)C(=O)N[C@@H](C)C(=O)N[C@@H](C)C(N)=O)NC(=O)[C@H](CC2CCC2)NC(=O)[C@H](CCC(N)=O)NC(=O)[C@H](C)NC(=O)[C@H](Cc2c[nH]c3ccccc23)NC(=O)[C@H](Cc2ccc(O)cc2)NC(=O)[C@H](CO)NC1=O)[C@@H](C)O` (single isomer, unassigned) [compound 713]: the Ki in test [1] and in test [2] was below 0.01 µM in each case.
With `CC(=O)N[C@@H](CC(C)C)C(=O)N[C@H](C(=O)N[C@@H](Cc1ccccc1)C(=O)N[C@]1(C)CCCCCCC=CCCC[C@@](C)(C(=O)N[C@@H](C)C(=O)N[C@@H](C)C(=O)N[C@@H](C)C(N)=O)NC(=O)[C@H](CC2CCC2)NC(=O)[C@H](CCC(N)=O)NC(=O)[C@H](C)NC(=O)[C@H](Cc2c[nH]c3ccccc23)NC(=O)[C@H](Cc2ccc(O)cc2)NC(=O)[C@H](CCC(=O)O)NC1=O)[C@@H](C)O` (single isomer, unassigned) [compound 716], the Ki in test [1] and in test [2] was below 0.01 µM throughout.
The IC50 is the midpoint of a concentration-inhibition curve. Consider `CSCC[C@H](NC(=O)[C@H](C)NC(=O)[C@H](CO)NC(=O)[C@]1(C)CCCC=CCCCCCC[C@@](C)(NC(=O)[C@H](Cc2ccccc2)NC(=O)[C@@H](NC(=O)[C@H](CC(C)C)NC(C)=O)[C@@H](C)O)C(=O)N[C@@H](C)C(=O)N[C@@H](Cc2ccc(O)cc2)C(=O)N[C@@H](Cc2c[nH]c3ccccc23)C(=O)N[C@@H](C)C(=O)N[C@@H](CCC(N)=O)C(=O)N[C@@H](CC(C)C)C(=O)N1)C(N)=O` [compound 5] (Ac-LTF[R8]AYWAQL[S5]SAM-NH2; staple 4-11), for which, in test [1], the IC50 fell in the range of 0.01 to 0.1 µM and the Ki is below 0.01 µM. In test [2], the IC50 fell in the range of 0.1 to 1 µM and the inhibition constant (Ki) is 0.01 to 0.1 µM.
For the compound `CCCC[C@H](NC(=O)[C@H](C)NC(=O)[C@H](C)NC(=O)[C@]1(C)CCCC=CCCCCCC[C@@](C)(NC(=O)[C@H](Cc2ccccc2)NC(C)=O)C(=O)N[C@@H](C)C(=O)N[C@@H](Cc2ccc(O)cc2)C(=O)N[C@@H](Cc2c[nH]c3ccccc23)C(=O)N[C@@H](CCC(=O)O)C(=O)NC2(CC2)C(=O)N[C@@H](CC(C)C)C(=O)N1)C(N)=O` [compound 14] (Ac-F[R8]AYWE[Ac3c]L[S5]AA[Nle]-NH2; staple 2-9), in test [1], the IC50 fell in the range of 0.01 to 0.1 µM and the Ki was below 0.01 µM. In test [2], the IC50 was in the range of 0.01 to 0.1 µM and the Ki was below 0.01 µM.
`CSCC[C@H](NC(=O)[C@H](C)NC(=O)[C@H](C)NC(=O)[C@]1(C)CCCC=CCCCCCC[C@@](C)(NC(=O)[C@H](Cc2ccccc2)NC(C)=O)C(=O)N[C@@H](C)C(=O)N[C@@H](Cc2ccc(O)cc2)C(=O)N[C@@H](Cc2c[nH]c3ccccc23)C(=O)N[C@@H](CCC(=O)O)C(=O)NC2(CC2)C(=O)N[C@@H](CC(C)C)C(=O)N1)C(N)=O` [compound 16] (Ac-F[R8]AYWE[Ac3c]L[S5]AAM-NH2; staple 2-9): the IC50 in test [1] and in test [2] was 0.01 to 0.1 µM each time. Moreover, the Ki is below 0.01 µM in test [1] and 0.01 to 0.1 µM in test [2].
For `CC(=O)N[C@@H](Cc1ccccc1)C(=O)N[C@]1(C)CCCCCCC=CCCC[C@@](C)(C(=O)N[C@@H](C)C(=O)N[C@@H](C)C(=O)N[C@@H](CCC(C)C)C(N)=O)NC(=O)[C@H](CC(C)C)NC(=O)C2(CC2)NC(=O)[C@H](CCC(=O)O)NC(=O)[C@H](Cc2c[nH]c3ccccc23)NC(=O)[C@H](Cc2ccc(O)cc2)NC(=O)[C@H](C)NC1=O` [compound 17] (Ac-F[R8]AYWE[Ac3c]L[S5]AA[hLeu]-NH2; staple 2-9), the IC50 in test [1] and in test [2] was 0.01 to 0.1 µM in each case. Further, the Ki in test [1] is below 0.01 µM; in test [2], 0.01 to 0.1 µM.
As for `CC(=O)N[C@@H](Cc1ccccc1)C(=O)N[C@]1(C)CCCCCCC=CCCC[C@@](C)(C(=O)N[C@@H](C)C(=O)N[C@@H](C)C(=O)N[C@H](C(N)=O)C2CCCCC2)NC(=O)[C@H](CC(C)C)NC(=O)C2(CC2)NC(=O)[C@H](CCC(=O)O)NC(=O)[C@H](Cc2c[nH]c3ccccc23)NC(=O)[C@H](Cc2ccc(O)cc2)NC(=O)[C@H](C)NC1=O` [compound 20] (Ac-F[R8]AYWE[Ac3c]L[S5]AA[Chg]-NH2; staple 2-9), in test [1], the IC50 is 0.1 to 1 µM and the Ki lay in the range of 0.01 to 0.1 µM. In addition, in test [2], the IC50 fell in the range of 0.1 to 1 µM and the inhibitory constant (Ki) was 0.01 to 0.1 µM.
Take `CC(=O)N[C@@H](Cc1ccccc1)C(=O)N[C@]1(C)CCCCCCC=CCCC[C@@](C)(C(=O)N[C@@H](C)C(=O)N[C@@H](C)C(=O)N[C@@H](CC2CCCCC2)C(N)=O)NC(=O)[C@H](CC(C)C)NC(=O)C2(CC2)NC(=O)[C@H](CCC(=O)O)NC(=O)[C@H](Cc2c[nH]c3ccccc23)NC(=O)[C@H](Cc2ccc(O)cc2)NC(=O)[C@H](C)NC1=O` [compound 21] (Ac-F[R8]AYWE[Ac3c]L[S5]AA[Cha]-NH2; staple 2-9): in test [1], the IC50 lay in the range of 0.1 to 1 µM and the Ki was in the range of 0.01 to 0.1 µM. Besides, in test [2], the IC50 is 0.01 to 0.1 µM and the Ki fell in the range of 0.01 to 0.1 µM.
Turning to `CC(=O)N[C@@H](CC(=O)O)C(=O)N[C@@H](CC(C)C)C(=O)N[C@H](C(=O)N[C@@H](Cc1ccccc1)C(=O)N[C@]1(C)CCCCCCC=CCCC[C@@](C)(C(=O)N[C@@H](CCCNC(=N)N)C(=O)N[C@@H](CCCNC(=N)N)C(=O)N[C@@H](CC(C)C)C(=O)N[C@H](C(N)=O)C(C)C)NC(=O)[C@H](CC(C)C)NC(=O)[C@H](CCC(N)=O)NC(=O)[C@H](Cc2c[nH]cn2)NC(=O)[C@H](Cc2c[nH]c3ccccc23)NC(=O)[C@H](Cc2c[nH]cn2)NC(=O)[C@H](Cc2c[nH]cn2)NC1=O)[C@@H](C)O` [compound 28] (Ac-DLTF[R8]HHWHQL[S5]RRLV-NH2; staple 5-12), in test [1], the IC50 was in the range of 0.01 to 0.1 µM and the Ki was below 0.01 µM. Moreover, in test [2], the IC50 was in the range of 0.01 to 0.1 µM and the inhibition constant Ki lay in the range of 0.01 to 0.1 µM.
Turning to `CC(=O)N[C@@H](Cc1ccccc1)C(=O)N[C@]1(C)CCCCCCC=CCCC[C@@](C)(C(=O)N[C@@H](CCCNC(=N)N)C(=O)N[C@@H](CCCNC(=N)N)C(=O)N[C@@H](CC(=O)O)C(=O)N[C@@H](CC2CCCCC2)C(N)=O)NC(=O)[C@H](CC(C)C)NC(=O)[C@H](CCC(N)=O)NC(=O)[C@H](Cc2c[nH]cn2)NC(=O)[C@H](Cc2c[nH]c3ccccc23)NC(=O)[C@H](Cc2c[nH]cn2)NC(=O)[C@H](Cc2c[nH]cn2)NC1=O` [compound 30] (Ac-F[R8]HHWHQL[S5]RRD[Cha]-NH2; staple 2-9), in test [1], the 50% inhibitory concentration (IC50) was in the range of 0.1 to 1 µM and the inhibition constant (Ki) was 0.01 to 0.1 µM. In test [2], the half-inhibitory concentration (IC50) fell in the range of 0.1 to 1 µM and the Ki lay in the range of 0.01 to 0.1 µM.
For the compound `CCCC[C@H](NC(=O)[C@H](Cc1c[nH]cn1)NC(=O)[C@H](Cc1c[nH]cn1)NC(=O)[C@]1(C)CCCC=CCCCCCC[C@@](C)(NC(=O)[C@H](Cc2ccccc2)NC(C)=O)C(=O)N[C@@H](C)C(=O)N[C@@H](Cc2ccc(O)cc2)C(=O)N[C@@H](Cc2c[nH]c3ccccc23)C(=O)N[C@@H](C)C(=O)N[C@@H](CCC(N)=O)C(=O)N[C@@H](CC(C)C)C(=O)N1)C(=O)N[C@@H](CC(C)C)C(N)=O` [compound 38] (Ac-F[R8]AYWAQL[S5]HH[Nle]L-NH2; staple 2-9), in test [1], the IC50 is above 1 µM and the Ki fell in the range of 0.1 to 1 µM. Moreover, in test [2], the IC50 was in the range of 0.1 to 1 µM and the Ki was 0.01 to 0.1 µM.
With `CC(=O)N[C@@H](Cc1ccccc1)C(=O)N[C@]1(C)CCCCCCC=CCCC[C@@](C)(C(=O)N[C@@H](CCC(N)=O)C(=O)N[C@@H](Cc2c[nH]cn2)C(=O)N[C@H](C(=O)N[C@H](CC(C)C)C(N)=O)C2CCCCC2)NC(=O)[C@H](CC(C)C)NC(=O)[C@H](CCC(N)=O)NC(=O)[C@H](C(C)C)NC(=O)[C@H](Cc2c[nH]c3ccccc23)NC(=O)[C@H](Cc2ccc(O)cc2)NC(=O)[C@H](C)NC1=O` [compound 40] (Ac-F[R8]AYWVQL[S5]QH[Chg][dL]-NH2; staple 2-9), the IC50 in test [1] and in test [2] was 0.1 to 1 µM each time. The figures for the Ki in test [1] and in test [2] were 0.1 to 1 µM and 0.01 to 0.1 µM, respectively.
As for `CC(=O)N[C@@H](Cc1ccccc1)C(=O)N[C@]1(C)CCCCCCC=CCCC[C@@](C)(C(=O)N[C@@H](Cc2c[nH]cn2)C(=O)NC(C)(C)C(=O)N[C@@H](C)C(=O)N[C@H](C)C(N)=O)NC(=O)[C@H](CC(C)C)NC(=O)[C@H](CCC(N)=O)NC(=O)[C@H](Cc2ccc(O)cc2)NC(=O)[C@H](Cc2c[nH]c3ccccc23)NC(=O)[C@H](Cc2ccc(O)cc2)NC(=O)[C@H](C)NC1=O` [compound 42] (Ac-F[R8]AYWYQL[S5]H[Aib]A[dA]-NH2; staple 2-9), in test [1], the IC50 lay within 0.1 to 1 µM and the Ki was 0.01 to 0.1 µM. In test [2], the IC50 lay within 0.1 to 1 µM and the inhibition constant (Ki) fell in the range of 0.1 to 1 µM.
